Data published in patent US9428464B2, “Kynurenine-3-monooxygenase inhibitors, pharmaceutical compositions, and methods of use thereof” (CHDI Foundation, Inc., priority 2011, dated 2016).

Tested on: KMO
Assay: KMO activity assay: L-Kynurenine hydroxylation to 3-Hydroxy-Kynurenine, quantified by LC/MS
Assay type: biochemical
Conditions: compound at 10 uM; footnote: some portion of activity of amides may be due to contribution of acid precursor
Experimental: A generalized procedure for monitoring L-Kynurenine (KYN) hydroxylation to form product 3-Hydroxy-Kynurenine (3OH-KYN) by LC/MS is described below. Product is quantified by multiple reaction monitoring using MS.
A method of monitoring L-Kynurenine (KYN) hydroxylation to form product 3-Hydroxy-Kynurenine (3OH-KYN) by LC/MS is described below. Product is quantified by multiple reaction monitoring.
• Compound: Stock concentrations: 10 mM in 100% DMSO • Enzyme: KMO enzyme prepared at Evotec via mitochondria isolation from CHO-GST HIS KMO cells • Substrate: L-Kynurenine (Sigma: Cat #K3750) • [stock concentration: 10 mM in 100 mM potassium phosphate buffer, pH 7.4]
A method of monitoring L-Kynurenine (KYN) hydroxylation to form 3-Hydroxy-Kynurenine (3OH-KYN) by LC/MS is described. Product is quantified by multiple reaction monitoring (MRM method).

| Structure (SMILES) | % Inhibition at 10 uM [%] |
| --- | --- |
| CC1(C)CC(C(N)=O)C(C)(C)N1C(=O)c1cc(-c2ccc(Cl)c(Cl)c2)ncn1 (centres unmarked) [1-[6-(3,4-Dichloro-phenyl)-pyrimidine-4-carbonyl]-2,2,5,5-tetramemyl-pyrrolidine-3-carboxylic acid amide] | 98.27 |
| NC(=O)C1CCN(C(=O)c2cc(-c3ccc(Cl)c(Cl)c3)ncn2)C1 (centres unmarked) [1-[6-(3,4-Dichloro-phenyl)-pyrimidine-4-carbonyl]-pyrrolidine-3-carboxylic acid amide] | 101.835 |
| O=C(NC1CC1)C1CCN(C(=O)c2cc(-c3ccc(Cl)c(Cl)c3)ncn2)C1 (centres unmarked) [1-[6-(3,4-Dichloro-phenyl)-pyrimidine-4-carbonyl]-pyrrolidine-3-carboxylic acid cyclopropylamide] | 91.815 |
| CNC(=O)C1CCN(C(=O)c2cc(-c3ccc(Cl)c(Cl)c3)ncn2)C1 (centres unmarked) [1-[6-(3,4-Dichloro-phenyl)-pyrimidine-4-carbonyl]-pyrrolidine-3-carboxylic acid methylamide] | 83.065 |
| O=C(O)C1CCN(C(=O)c2cc(-c3ccc(Cl)c(Cl)c3)ncn2)C1 (centres unmarked) [1-[6-(3,4-dichloro-phenyl)-pyrimidine-4-carbonyl]-pyrrolidine-3-carboxylic acid] | 101.855 |
| CON=C(C)c1cc(-c2cccc(Cl)c2)ncn1 [1-[6-(3-Chloro-phenyl)-pyrimidin-4-yl]-ethanone O-methyl-oxime] | 102.2 |
| CC(=O)c1cc(-c2cccc(Cl)c2)ncn1 [1-[6-(3-Chloro-phenyl)-pyrimidin-4-yl]-ethanone] | 97.49 |
| O=C(CCN1CCCC1)N1CCN(C(=O)c2cc(-c3ccc(Cl)c(Cl)c3)ncn2)CC1 [1-{4-[6-(3,4-Dichloro-phenyl)-pyrimidine-4-carbonyl]-piperazin-1-yl}-3-pyrrolidin-1-yl-propan-1-one] | 68.48 |
| CC(=O)N1CCN(C(=O)c2cc(-c3ccc(Cl)c(Cl)c3)ncn2)CC1 [1-{4-[6-(3,4-Dichloro-phenyl)-pyrimidine-4-carbonyl]-piperazin-1-yl}-ethanone] | 100.06 |
| O=C(c1cc(-c2ccc(Cl)c(Cl)c2)ncn1)N1CCN2C(=O)CCC2C1 (centres unmarked) [2-[6-(3,4-Dichloro-phenyl)-pyrimidine-4-carbonyl]-hexahydro-pyrrolo[1,2-a]pyrazin-6-one] | 97.22 |
| CC(C)COC(=O)c1cc(-c2ccc(Cl)c(Cl)c2)ncn1 [2-methylpropyl 6-(3,4-dichlorophenyl)pyrimidine-4-carboxylate] | 100 |
| O=C(NS(=O)(=O)c1cccc(Cl)c1)c1cc(-c2ccc(Cl)c(Cl)c2)ncn1 [3-Chloro-N-[6-(3,4-dichloro-phenyl)-pyrimidine-4-carbonyl]-benzenesulfonamide] | 102.26 |
| O=C(NS(=O)(=O)c1cccc(Cl)c1)c1cc(-c2cccc(Cl)c2)ncn1 [3-Chloro-N-[6-(3-chloro-phenyl)-pyrimidine-4-carbonyl]-benzenesulfonamide] | 101.57 |
| O=C1OCc2c1ncnc2-c1ccc(Cl)c(Cl)c1 [4-(3,4-dichloro-phenyl)-5H-furo[3,4-d]pyrimidin-7-one] | 94 |
| O=C1CN(C(=O)c2cc(-c3ccc(Cl)c(Cl)c3)ncn2)CCN1CCN1CCOCC1 [4-[6-(3,4-Dichloro-phenyl)-pyrimidine-4-carbonyl]-1-(2-morpholin-4-yl-ethyl)-piperazin-2-one] | 98.7 |
| O=C1CN(C(=O)c2cc(-c3ccc(Cl)c(Cl)c3)ncn2)CCN1CCN1CCCC1 [4-[6-(3,4-Dichloro-phenyl)-pyrimidine-4-carbonyl]-1-(2-pyrrolidin-1-yl-ethyl)-piperazin-2-one] | 99.275 |
| O=C1CN(C(=O)c2cc(-c3ccc(Cl)c(Cl)c3)ncn2)CCN1CC1CCOCC1 [4-[6-(3,4-Dichloro-phenyl)-pyrimidine-4-carbonyl]-1-(tetrahydro-pyran-4-ylmethyl)-piperazin-2-one] | 99.91 |
